Test system: B16F10 cells (melanoma)
Experiment: B16F10 melanoma tumor growth in mice (Example 2b)
Type: in vivo, C57BL/6J mice
Details: maropitant 30 mg/kg i.p. once a day, anti CTLA-4 5 mg/kg i.p. every other day, FIG. 5
Description: One Lewis Pulmonar Carcinoma cell line: 3LL; and one melanoma cell line: B16F10 (ATCC cell bank; LGC Standards); were used in this study. Both cell lines were maintained in culture in Dulbecco's modified Eagle's medium (DMEM) (Gibco, Thermo Fisher Scientific) supplemented with 10% foetal bovine serum (FBS) (Gibco, Thermo Fisher Scientific), 2 mM L-glutamine (Sigma-Aldrich, Merk) and Peni-Strep (50 U/ml and […]; Gibco, Thermo Fisher Scientific) in a humidified incubator at 37° C. and 5% CO2.
Cerenia® (maropitant citrate injectable solution; Zoetis US) was injected intraperitoneally at a dose of 30 mg/kg, once a day. […]
3LL cells (0.6×10^6 per mouse) or B16F10 cells (1×10^6 per mouse) were subcutaneously injected into the right flank of C57BL/6J mice (Charles River) with matrigel (Matrigel Membrane Matrix, Corning) at 50% v/v. Tumor growth was evaluated every 2/3 days. Animal vital parameters were monitored daily. […]
In order to evaluate the effect of Maropitant and anti CTLA-4 combination in vivo, B16F10 tumor-bearing mice were randomly assigned into four treatment groups as detailed in table 1 (n=6 mice per group) to receive either Maropitant 30 mg/kg, anti CTLA-4 5 mg/kg, the combination of both agents or the equivalent volume of vehicle. Tumor growth was recorded as detailed in Materials and Methods. […]

Structure (SMILES): COc1ccc(C(C)(C)C)cc1CN[C@H]1C2CCN(CC2)[C@H]1C(c1ccccc1)c1ccccc1.O=C(O)CC(O)(CC(=O)O)C(=O)O [Maropitant, maropitant citrate]
- reduction in tumor growth compared to vehicle group (after 9 days of treatment): 28%
- effect on growth of melanoma tumours (in words) (9 days): inhibited the grown of melanoma tumours

— patent US20220016142A1, “COMBINATION THERAPY FOR TREATMENT OF CANCER” (PLUS VITECH, S.L., priority 2018, published 2022)
